Results as given in patent US20240117269A1, “NOVEL AROMATIC MONOTHIOKETALS AS FRAGRANCE COMPOUNDS” (SYMRISE AG, priority 2019, published 2024).

Assay: Odor detection threshold (ODT), dynamic olfactometer TO8, expert group, EN 13725
Settings: in air
Protocol: The odor perception threshold, i.e. the ODT value (“odor detection threshold”), was determined using a dynamic olfactometer designated TO8 and a group of experts in accordance with the EN 13725 standard, in which an odorous air sample is diluted with clean air. The dilution is presented to the test persons (testers) for evaluation. The odor description was carried out by a group of experts comprising 10 members.

Structure (SMILES) | ODT value [ng/L]
CC1OCc2ccccc2S1 (centres unmarked) [2-methyl-4H-3,1-benzoxathiin] | 3.6
c1ccc2c(c1)COCS2 [4H-3,1-benzoxathiin] | 43.6
